From the NIST ThermoML archive (doi:10.1016/j.jct.2016.03.021)

Test: wn = mass fraction of the nth substance listed
Details: Liquid; for mass density: Vibrating tube method

CN(CCO)CCO [N-methyldiethanolamine] + O
viscosity [mPa·s]
Details | w1 = 0.1 | w1 = 0.2 | w1 = 0.2002 | w1 = 0.3 | w1 = 0.4
293.15 K, 93 kPa, Concentric cylinders viscometry | 1.463 | 2.293 | – | 3.942 | –
293.15 K, 100 kPa, Falling or rolling sphere viscometry | 1.476 | 2.35 | 2.35 | 3.999 | –
293.15 K, 5000 kPa, Falling or rolling sphere viscometry | 1.475 | – | 2.353 | 4.018 | –
293.15 K, 10000 kPa, Falling or rolling sphere viscometry | 1.475 | – | 2.357 | 4.038 | –
293.15 K, 20000 kPa, Falling or rolling sphere viscometry | 1.471 | – | 2.364 | 4.077 | –
293.15 K, 30000 kPa, Falling or rolling sphere viscometry | 1.472 | – | 2.372 | 4.114 | –
293.15 K, 40000 kPa, Falling or rolling sphere viscometry | 1.47 | – | 2.38 | 4.153 | –
293.15 K, 60000 kPa, Falling or rolling sphere viscometry | 1.474 | – | 2.399 | 4.231 | –
293.15 K, 80000 kPa, Falling or rolling sphere viscometry | 1.477 | – | 2.419 | 4.311 | –
293.15 K, 100000 kPa, Falling or rolling sphere viscometry | 1.485 | – | 2.437 | 4.39 | –
293.15 K, 120000 kPa, Falling or rolling sphere viscometry | 1.492 | – | 2.464 | 4.478 | –
313.15 K, 93 kPa, Concentric cylinders viscometry | 0.9079 | 1.342 | – | 2.094 | 3.145
313.15 K, 100 kPa, Falling or rolling sphere viscometry | 0.912 | 1.345 | 1.345 | 2.095 | 3.238
313.15 K, 5000 kPa, Falling or rolling sphere viscometry | 0.914 | – | 1.347 | 2.106 | 3.27
313.15 K, 10000 kPa, Falling or rolling sphere viscometry | 0.915 | – | 1.349 | 2.118 | 3.302
313.15 K, 20000 kPa, Falling or rolling sphere viscometry | 0.92 | – | 1.358 | 2.144 | 3.365
313.15 K, 30000 kPa, Falling or rolling sphere viscometry | 0.923 | – | 1.367 | 2.168 | 3.428
313.15 K, 40000 kPa, Falling or rolling sphere viscometry | 0.927 | – | 1.377 | 2.192 | 3.491
313.15 K, 60000 kPa, Falling or rolling sphere viscometry | 0.936 | – | 1.398 | 2.244 | 3.618
313.15 K, 80000 kPa, Falling or rolling sphere viscometry | 0.945 | – | 1.418 | 2.296 | 3.74
313.15 K, 100000 kPa, Falling or rolling sphere viscometry | 0.955 | – | 1.445 | 2.356 | 3.866
313.15 K, 120000 kPa, Falling or rolling sphere viscometry | 0.964 | – | 1.466 | 2.412 | 3.996
333.15 K, 93 kPa, Concentric cylinders viscometry | 0.6344 | 0.8719 | – | 1.276 | 1.82
333.15 K, 100 kPa, Falling or rolling sphere viscometry | 0.624 | 0.872 | 0.872 | 1.271 | 1.843
333.15 K, 5000 kPa, Falling or rolling sphere viscometry | 0.627 | – | 0.876 | 1.278 | 1.861
333.15 K, 10000 kPa, Falling or rolling sphere viscometry | 0.63 | – | 0.881 | 1.286 | 1.88
333.15 K, 20000 kPa, Falling or rolling sphere viscometry | 0.634 | – | 0.89 | 1.302 | 1.921
333.15 K, 30000 kPa, Falling or rolling sphere viscometry | 0.638 | – | 0.898 | 1.316 | 1.956
333.15 K, 40000 kPa, Falling or rolling sphere viscometry | 0.643 | – | 0.907 | 1.332 | 1.992
333.15 K, 60000 kPa, Falling or rolling sphere viscometry | 0.652 | – | 0.924 | 1.367 | 2.063

mass density [kg/m3]
Details | w1 = 0.1 | w1 = 0.2002 | w1 = 0.3 | w1 = 0.4
293.15 K, 100 kPa | 1007 | 1016.5 | 1026.7 | 1036.6
293.15 K, 500 kPa | 1007.2 | 1016.6 | 1026.9 | 1036.8
293.15 K, 1000 kPa | 1007.4 | 1016.8 | 1027.1 | 1036.9
293.15 K, 2000 kPa | 1007.8 | 1017.2 | 1027.4 | 1037.3
293.15 K, 5000 kPa | 1009 | 1018.4 | 1028.6 | 1038.3
293.15 K, 10000 kPa | 1011.1 | 1020.3 | 1030.4 | 1040.1
293.15 K, 15000 kPa | 1013.2 | 1022.2 | 1032.2 | 1041.9
293.15 K, 20000 kPa | 1015.3 | 1024.2 | 1034.1 | 1043.6
293.15 K, 30000 kPa | 1019.4 | 1028 | 1037.7 | 1047.1
293.15 K, 40000 kPa | 1023.4 | 1031.8 | 1041.2 | 1050.4
293.15 K, 50000 kPa | 1027.3 | 1035.4 | 1044.6 | 1053.8
293.15 K, 60000 kPa | 1031.1 | 1039 | 1048 | 1057.1
293.15 K, 70000 kPa | 1035 | 1042.6 | 1051.4 | 1060.3
293.15 K, 80000 kPa | 1038.5 | 1045.9 | 1054.6 | 1063.3
293.15 K, 90000 kPa | 1042.2 | 1049.4 | 1057.9 | 1066.4
293.15 K, 100000 kPa | 1045.7 | 1052.8 | 1061.1 | 1069.5
293.15 K, 110000 kPa | 1049.2 | 1056 | 1064.1 | 1072.4
293.15 K, 120000 kPa | 1052.7 | 1059.3 | 1067.2 | 1075.4
293.15 K, 130000 kPa | 1056.1 | 1062.6 | 1070.3 | 1078.4
293.15 K, 140000 kPa | 1059.5 | 1065.6 | 1073.2 | 1081.1
313.15 K, 100 kPa | 1000.2 | 1008.5 | 1017.2 | 1025.5
313.15 K, 500 kPa | 1000.4 | 1008.6 | 1017.4 | 1025.6
313.15 K, 1000 kPa | 1000.6 | 1008.8 | 1017.5 | 1025.8
313.15 K, 2000 kPa | 1001 | 1009.2 | 1017.9 | 1026.2
313.15 K, 5000 kPa | 1002.2 | 1010.4 | 1019.1 | 1027.3
313.15 K, 10000 kPa | 1004.3 | 1012.3 | 1020.9 | 1029.2
313.15 K, 15000 kPa | 1006.3 | 1014.2 | 1022.8 | 1031
313.15 K, 20000 kPa | 1008.2 | 1016.1 | 1024.6 | 1032.8
313.15 K, 30000 kPa | 1012.3 | 1019.9 | 1028.4 | 1036.3
313.15 K, 40000 kPa | 1016.2 | 1023.7 | 1032 | 1040
313.15 K, 50000 kPa | 1019.9 | 1027.3 | 1035.5 | 1043.2
313.15 K, 60000 kPa | 1023.8 | 1031 | 1039 | 1046.6
313.15 K, 70000 kPa | 1027.4 | 1034.4 | 1042.3 | 1050
313.15 K, 80000 kPa | 1031 | 1037.9 | 1045.5 | 1053.1
313.15 K, 90000 kPa | 1034.5 | 1041.2 | 1048.7 | 1056.2
313.15 K, 100000 kPa | 1038.2 | 1044.7 | 1052 | 1059.5
313.15 K, 110000 kPa | 1041.5 | 1047.9 | 1055.2 | 1062.5
313.15 K, 120000 kPa | 1044.9 | 1051.1 | 1058.3 | 1065.5
313.15 K, 130000 kPa | 1048.1 | 1054.3 | 1061.3 | 1068.4
313.15 K, 140000 kPa | 1051.4 | 1057.4 | 1064.5 | 1071.4
333.15 K, 100 kPa | 990.5 | 997.8 | 1005.4 | 1012.4
333.15 K, 500 kPa | 990.6 | 998 | 1005.6 | 1012.7
333.15 K, 1000 kPa | 990.8 | 998.2 | 1005.7 | 1012.8
333.15 K, 2000 kPa | 991.3 | 998.6 | 1006.2 | 1013.2
333.15 K, 5000 kPa | 992.5 | 999.8 | 1007.3 | 1014.4
333.15 K, 10000 kPa | 994.6 | 1001.8 | 1009.3 | 1016.4
333.15 K, 15000 kPa | 996.6 | 1003.8 | 1011.3 | 1018.4
333.15 K, 20000 kPa | 998.6 | 1005.7 | 1013.2 | 1020.3
333.15 K, 30000 kPa | 1002.6 | 1009.7 | 1017 | 1024.1
333.15 K, 40000 kPa | 1006.7 | 1013.6 | 1020.9 | 1027.9
333.15 K, 50000 kPa | 1010.4 | 1017.2 | 1024.3 | 1031.4
333.15 K, 60000 kPa | 1014.2 | 1020.9 | 1027.9 | –
